From ChEMBL document CHEMBL4390683, “Design, synthesis, and evaluation of α-galactopyranosylceramide mimics promoting Th2 cytokines production” (2019)

Tests used:
Type in all cases: functional
Mus musculus [1] = assay: Induction of serum IFNgamma production in C57BL/6 mouse assessed as serum IFNgamma level at 100 ug/kg, ip and measured for 48 hrs by AUC method
Mus musculus [2] = assay: Ratio of induction activity for IL-4 production in C57BL/6 mouse at 100 ug/kg, ip after 48 hrs by AUC method to induction activity for IFN-gamma production in C57BL/6 mouse at 100 ug/kg, ip after 48 hrs by AUC method
Mus musculus [3] = assay: Induction of serum IFNgamma production in C57BL/6 mouse at 100 ug/kg, ip and measured for 48 hrs by AUC method relative to KRN7000
Mus musculus [4] = assay: Ratio of induction activity for IL-4 production in C57BL/6 mouse at 100 ug/kg, ip after 48 hrs by peak value method to induction activity for IFN-gamma production in C57BL/6 mouse at 100 ug/kg, ip after 48 hrs by peak value method
Mus musculus [5] = assay: Induction of serum IL-4 production in C57BL/6 mouse assessed as serum IL-4 level at 100 ug/kg, ip and measured for 48 hrs by peak value method relative to KRN7000
Mus musculus [6] = assay: Induction of serum IFNgamma production in C57BL/6 mouse assessed as serum IFNgamma level at 100 ug/kg, ip and measured for 48 hrs by peak value method
Mus musculus [7] = assay: Induction of serum IFNgamma production in C57BL/6 mouse assessed as serum IFNgamma level at 100 ug/kg, ip and measured for 48 hrs by peak value method relative to KRN7000
Mus musculus [8] = assay: Induction of serum IL-4 production in C57BL/6 mouse at 100 ug/kg, ip and measured for 48 hrs by AUC method relative to KRN7000
Mus musculus [9] = assay: Induction of serum IL-4 production in C57BL/6 mouse assessed as serum IL-4 level at 100 ug/kg, ip and measured for 48 hrs by AUC method
Mus musculus [10] = assay: Induction of serum IL-4 production in C57BL/6 mouse assessed as serum IL-4 level at 100 ug/kg, ip and measured for 48 hrs by peak value method; design: unit not given here

CCCCCCCCCCCCCCCCCCCCCCCC(=O)N[C@@H](CO[C@H]1O[C@H](CO)[C@H](O)[C@H](O)[C@H]1O)[C@H](O)[C@H](O)CCCCC
AUC (Mus musculus [1]): 6780 pg·h/mL
Ratio (Mus musculus [2]): 6.45
Activity (Mus musculus [3]): 39%
Ratio (Mus musculus [4]): 4.85
Activity (Mus musculus [5]): 244%
Activity (Mus musculus [6]): 336 pg/mL
Activity (Mus musculus [7]): 50%
Activity (Mus musculus [8]): 251%

CCCCCCCCCCCCCCCCCCCCCCCC(=O)N[C@@H](CO[C@H]1O[C@H](CNC(=O)[C@@H](N)CCC(=O)O)[C@H](O)[C@H](O)[C@H]1O)[C@H](O)[C@H](O)CCCCC
AUC (Mus musculus [1]): 3520 pg·h/mL
Activity (Mus musculus [9]): 2043.36 pg·h/mL
Activity (Mus musculus [10]): 303.26
Ratio (Mus musculus [2]): 7.59
Activity (Mus musculus [3]): 20%
Ratio (Mus musculus [4]): 2.99
Activity (Mus musculus [5]): 108%
Activity (Mus musculus [6]): 241 pg/mL
Activity (Mus musculus [7]): 36%
Activity (Mus musculus [8]): 153%

CCCCCCCCCCCCCCCCCCCCCCCC(=O)N[C@@H](CO[C@H]1O[C@H](CNC(=O)CCc2ccc(O)cc2)[C@H](O)[C@H](O)[C@H]1O)[C@H](O)[C@H](O)CCCCC
AUC (Mus musculus [1]): 4380 pg·h/mL
Activity (Mus musculus [9]): 3120.95 pg·h/mL
Activity (Mus musculus [10]): 657.75
Ratio (Mus musculus [2]): 9.3
Activity (Mus musculus [3]): 25%
Ratio (Mus musculus [4]): 9.28
Activity (Mus musculus [5]): 235%
Activity (Mus musculus [6]): 169 pg/mL
Activity (Mus musculus [7]): 25%
Activity (Mus musculus [8]): 234%

CCCCCCCCCCCCCCCCCCCCCCCCCC(=O)N[C@@H](CO[C@H]1O[C@H](CO)[C@H](O)[C@H](O)[C@H]1O)[C@H](O)[C@H](O)CCCCCCCCCCCCCC [RGI-7000]
AUC (Mus musculus [1]): 17400 pg·h/mL
Activity (Mus musculus [9]): 1331 pg·h/mL
Activity (Mus musculus [10]): 280
Ratio (Mus musculus [2]): 1
Ratio (Mus musculus [4]): 1
Activity (Mus musculus [6]): 666 pg/mL
